Experimental data as given in patent US7153524B2, “Method for improving adsorption of a drug from ethylene oxide derivative” (Astellas Pharma Inc., priority 2002, dated 2006).
≈ marks a conversion by molar mass, not a printed value. Where a name gives a salt, the structure may show the parent alone. Each block holds one molecule with its values, some of them ahead of it.

How the values were obtained:
[1] = Adsorption of compound A from aqueous phase onto immobilized oil-gel phase (Experiment 2); format: physicochemical; conditions: for adsorption amount of chemical compound A: drug charge 600 μg, 2 h
Procedure: (§1) In order to study adsorption of a drug from an aqueous phase onto an oil phase (model of mucous layers), an in vitro test system wherein mixing of the oil components in the aqueous phase is prevented was constructed by immobilizing the oil phase with a gelling agent and separating it from the aqueous phase of a drug suspended in a mucin solution. Immobilization of the oil phase was performed by adding 120 mg of an oil gelling agent, which is a natural oil and fat fatty acid extracted from castor oil (Johnson Co., Ltd.), to 2 mL of medium chain fatty acid triglyceride (Nihon Oils and Fats Co., Ltd.; brand name: Panaset) and preparing an oil gel in a test tube (inner diameter of 1 cm, Eiken tube No. 5). A solution of 600 μg of compound A suspended in 2 mL of an aqueous 0.8% mucin solution was prepared and brought into contact with the oil phase (n=6). When Macrogol 6000 was added to the aqueous phase, the concentration was brought to 3.5% (n=3 to 6). After setting the solution aside for two hours, the aqueous phase was recovered and compound A was assayed by HPLC. Furthermore, the surface of the oil phase was washed with methanol and compound A in the recovered solution was assayed by HPLC.

H. pylori [2] = assay: In vivo anti-H. pylori activity, Mongolian gerbil infection model (Experiment 4); design: species or system Mongolian gerbils; conditions: for Clearance rate: oral twice a day for three days
Procedure: In vivo anti-H. pylori activity was evaluated with animal experiments using Mongolian gerbil infection models. […] The drug was administered twice a day for three days at an administration volume of 20 mL/kg using an oral stomach tube. The stomach was autopsied and excised and the number of H. pylori in the stomach were measured the day after the final administration. In vivo anti-H. pylori activity was evaluated from clearance, that is, the ratio of the number of cases in which H. pylori was identified and the number of cases in which the number of bacteria after treatment was below the detection limit.

H. pylori [3] = conditions: compound used alone; cited from earlier work
[4] = Solubility of compound A in water and components of mucus layer; format: physicochemical
Procedure: Compound A is a drug that acts directly from the gastric lumen side on the H. pylori that lives in the mucous layers and therefore, the case wherein after dissolution (I), the bulk powder that has been administered transfers (IV) and the case where the bulk powder is dissolved (II) after transferring to the mucous layers (III) will be considered. The effects of Macrogol 6000 on the course of dissolution of compound A were studied. A specific amount of compound A was added to ion-exchanged water, a 0.8% mucin (Sigma) solution, a 6.2% BSA (Sigma) solution, and linoleic acid (Sigma), and various drugs suspensions were obtained by exposure for 20 minutes to ultrasonic waves (Sono Cleaner, Kaijo Corporation). The rest of the procedure was performed as in Example 1 and the following samples were obtained.
Solubility of compound A in water was calculated by filtering the liquid after dispersion using a hydrophilic filter (0.45 μm, Advantec) and submitting the product to assay by high-performance liquid chromatography (HPLC hereafter) (n=2, sample (1); n=3, sample (2)).
Solubility of the drug in mucin was calculated by filtering the liquid after dispersion using a hydrophilic filter (0.8 μm, Advantec) and submitting the product to assay by HPLC (n=3, samples (3) and (4)).
The liquid after dispersion was filtered with a hydrophilic filter (0.45 μm, Advantec), absorbance at 370 nm and 550 nm (corrected for turbidity) was determined under room temperature using an ultraviolet-visible spectrophotometer, and solubility was calculated (n=3, samples (5) and (6)).
The liquid after dispersion was filtered with a hydrophilic filter (0.45 μm, Advantec), absorbance at 366 nm and 550 nm (corrected for turbidity) was determined under room temperature using an ultraviolet-visible spectrophotometer, and solubility was calculated (n=3, samples (7) and (8)).

[5] = Rate of adsorption of compound A on the oil-gel phase in presence of POE excipients (Experiment 3); format: physicochemical
Procedure: as §1
The rate of adsorption of a drug of compound A on the oil phase was measured by the same method as in Example 2.

H. pylori [6] = assay: Minimum concentration at which an increase in bacteria is inhibited; format: cell-based
[7] = Adsorption of various compounds on the oil-gel phase (Experiment 5); format: physicochemical; conditions: 0.8% mucin, 600 μg loading, 2 hours
Procedure: When Macrogol 6000 was added to the aqueous phase, it was brought to 3.5% (n=3,6). […] The compounds that were used were […], nicardipine hydrochloride, compound B, and compound C. […] Furthermore, the oil phase surface was washed with methanol and the drug adsorbed on the oil phase in the recovered solution was assayed with an ultraviolet-visible spectrophotometer for each compound.

Structure (SMILES): CCCCCC/C=C/Cc1c(C)c(=O)c2ccccc2n1O [compound A, 1-hydroxy-2-(2-trans-nonenyl)-3-methyl-4(1H)-quinolone]
drug adsorbed at the surface of the oil phase, % of the drug that was added ([1]; compound A-mucin suspension with Macrogol 6000, average): 93%
drug adsorbed at the surface of the oil phase, % of the charged amount ([1]; compound A-mucin suspension, no Macrogol 6000): 47%
adsorption amount of chemical compound A ([1]; mucin (+), with 3.5% PEG6000): 506 µg
adsorption amount of chemical compound A ([1]; mucin (+), with 3.5% PEG6000, listed as chemical compound A): 506 ± 53 µg
adsorption amount of chemical compound A ([1]; mucin (+), without PEG6000): 259 µg
adsorption amount of chemical compound A ([1]; mucin (+), without PEG6000, listed as chemical compound A): 259 ± 63 µg
adsorption amount of chemical compound A ([1]; mucin (−), with 3.5% PEG6000): 173 ± 25 µg
adsorption amount of chemical compound A ([1]; mucin (−), without PEG6000): 249 ± 24 µg
increase in amount adsorbed on the oil phase when Macrogol 6000 was added ([1]; mucin suspension, with vs without Macrogol 6000): 2.0 fold
augmentation of the in vivo anti-H. pylori activity (H. pylori [2]; 0.2% Macrogol 6000 added vs 0.5% MC suspension alone): 10 fold
clearance (H. pylori [2]; 0.2% Macrogol 6000 in 0.5% MC suspension, dose of 0.1 mg/kg or higher): ≥ 80%
in vivo anti-H. pylori activity with Macrogol 6000 compared to without (H. pylori [2]; 0.2% of Macrogol 6000 added): augmentation of in vivo anti-H. pylori activity was seen
Clearance ratio (H. pylori [2]; PEG6000 0%, dose 0.1 mg/kg): (0/5)
Clearance rate (H. pylori [2]; PEG6000 0%, dose 0.1 mg/kg): 0%
Clearance ratio (H. pylori [2]; PEG6000 0%, dose 0.3 mg/kg): (1/5)
Clearance rate (H. pylori [2]; PEG6000 0%, dose 0.3 mg/kg): 20%
Clearance ratio (H. pylori [2]; PEG6000 0%, dose 1 mg/kg): (4/5)
Clearance rate (H. pylori [2]; PEG6000 0%, dose 1 mg/kg): 80%
Clearance rate (H. pylori [2]; PEG6000 0%, dose 1 mg/kg, listed as chemical compound A): 80%
Clearance ratio (H. pylori [2]; PEG6000 0%, dose 3 mg/kg): (4/5)
Clearance rate (H. pylori [2]; PEG6000 0%, dose 3 mg/kg): 80%
Clearance ratio (H. pylori [2]; PEG6000 0.2%, dose 0.1 mg/kg): (4/5)
Clearance rate (H. pylori [2]; PEG6000 0.2%, dose 0.1 mg/kg): 80%
Clearance ratio (H. pylori [2]; PEG6000 0.2%, dose 0.3 mg/kg): (4/4)
Clearance rate (H. pylori [2]; PEG6000 0.2%, dose 0.3 mg/kg): 100%
Clearance ratio (H. pylori [2]; PEG6000 0.2%, dose 1 mg/kg): (4/5)
Clearance rate (H. pylori [2]; PEG6000 0.2%, dose 1 mg/kg): 80%
Clearance ratio (H. pylori [2]; PEG6000 0.2%, dose 3 mg/kg): (4/4)
Clearance rate (H. pylori [2]; PEG6000 0.2%, dose 3 mg/kg): 100%
number of live bacteria in vivo (H. pylori [3]): reduction in the number of live bacteria in vivo
solubility ([4]; 0.8% mucin aq. solution (sample 3)): 5.9 µg/mL (≈ 19.7 µM)
solubility ([4]; 0.8% mucin aq. solution +3.5% PEG6000 (sample 4)): 6.9 µg/mL (≈ 23 µM)
solubility ([4]; 6.2% BSA aq. solution (sample 5)): 18.0 µg/mL (≈ 60.1 µM)
solubility ([4]; 6.2% BSA aq. solution +3.5% PEG6000 (sample 6)): 26.9 µg/mL (≈ 89.8 µM)
increase in solubility when Macrogol 6000 was added ([4]; BSA solution, sample 6 vs 5): 1.5 fold
increase in solubility when Macrogol 6000 was added ([4]; aqueous mucin solution, sample 4 vs 3): 1.2 fold
solubility ([4]; distilled water +3.5% PEG6000 (sample 2)): 0.1 µg/mL (≈ 0.334 µM)
solubility ([4]; distilled water, no PEG6000 (sample 1)): 0.1 µg/mL (≈ 0.334 µM)
solubility ([4]; linoleic acid (sample 7)): 135.0 µg/mL (≈ 451 µM)
solubility ([4]; linoleic acid +10% PEG6000 (sample 8)): 110.0 µg/mL (≈ 367 µM)
Adsorption on the oil-gel phase, amount(%) ([5]; excipient HCO 60 (n 60, m 10)): 33 ± 14%
Adsorption on the oil-gel phase, amount(%) ([5]; excipient HCO 80 (n 80, m 13.3)): 17 ± 10%
Adsorption on the oil-gel phase, amount(%) ([5]; excipient HCO 100 (n 100, m 16.7)): 37 ± 11%
Adsorption on the oil-gel phase, amount(%) ([5]; excipient PEG400 (n 8, m 8)): 42 ± 9%
Adsorption on the oil-gel phase, amount(%) ([5]; excipient PEG 4000 (n 72, m 72)): 42 ± 4 %
Adsorption on the oil-gel phase, amount(%) ([5]; excipient PEG 6000 (n 188, m 188)): 72 ± 3 %
Adsorption on the oil-gel phase, amount(%) ([5]; excipient PEG 20000 (n 455, m 455)): 79 ± 0 %
Adsorption on the oil-gel phase, amount(%) ([5]; excipient Pluronic F68 (n 160, m 80)): 67 ± 3 %
Adsorption on the oil-gel phase, amount(%) ([5]; excipient Pluronic L31 (n 3, m 1.5)): 28 ± 5%
Adsorption on the oil-gel phase, amount(%) ([5]; excipient Pluronic L44 (n 20, m 10)): 25 ± 2%
Adsorption on the oil-gel phase, amount(%) ([5]; excipient Pluronic L64 (n 27, m 13.5)): 32 ± 5%
Adsorption on the oil-gel phase, amount(%) ([5]; excipient Pluronic P85 (n 54, m 27)): 40 ± 4 %
Adsorption on the oil-gel phase, amount(%) ([5]; excipient Pluronic P103 (n 29, m 14.5)): 22 ± 7%
Adsorption on the oil-gel phase, amount(%) ([5]; without excipient): 19 ± 7%
minimum concentration at which an increase in bacteria is inhibited (H. pylori [6]): 0.025 µg/mL

Structure (SMILES): Cc1cccc(NC(=O)N[C@@H]2N=C(c3ccccc3)c3ccccc3N(CC(=O)c3ccccc3C)C2=O)c1 [compound B, (R)-1-[2,3-dihydro-1-(2′-methylphenacyl)-2-oxo-5-phenyl-1H-1,4-benzodiazepin-3-yl]-3-(3-methylphenyl)urea]
adsorption amount of chemical compound ([7]; with 3.5% PEG6000): 411 ± 3 µg
adsorption amount of chemical compound ([7]; without PEG6000): 269 ± 13 µg

adsorption amount of chemical compound ([7]; with 3.5% PEG6000): 370 ± 12 µg
adsorption amount of chemical compound ([7]; without PEG6000): 335 ± 10 µg
Structure (SMILES): Cc1nc2c([nH]1)-c1ccccc1N(C(=O)c1ccc(NC(=O)c3ccccc3-c3ccccc3)cc1)CC2.Cl [compound C, 4′-[(2-methyl-1,4,5,6-tetrahydroimidazo[4,5-d][1]benzazepin-6-yl)carbonyl]-2-phenylbenzanilide hydrochloride]

adsorption amount of chemical compound ([7]; with 3.5% PEG6000): 96 ± 5 µg
adsorption amount of chemical compound ([7]; without PEG6000): 47 ± 6 µg
Structure (SMILES): COC(=O)C1=C(C)NC(C)=C(C(=O)OCCN(C)Cc2ccccc2)C1c1cccc([N+](=O)[O-])c1 (stereo not shown) [nicardipine, nicardipine hydrochloride, reference compound]
